Earlier results as cited in patent publication US9046534B2, “Methods and systems for identifying and treating anti-progestin sensitive tumors” (INVIVIS PHARMACEUTICALS INC., priority 2011, dated 2015).

Experiments:
[1] = human subjects; an increase is an undesirable side-effect for breast cancer therapy
[2] = system: progesterone responsive genes; details: compared with progestins and other anti-progestins, which activate progesterone responsive genes
[3] = system: breast cancer; details: first line hormone treatment, small breast cancer study
[4] = system: advanced breast cancer; details: 101 poor prognosis patients with advanced breast cancer, progressed despite prior hormonal therapy (tamoxifen)
[5] = target: T1, PR (Homo sapiens, UniProt P06401); details: in vitro systems; aggregates produced by an artificial ligand bound to the PR
T1 sequence (P06401 1-933): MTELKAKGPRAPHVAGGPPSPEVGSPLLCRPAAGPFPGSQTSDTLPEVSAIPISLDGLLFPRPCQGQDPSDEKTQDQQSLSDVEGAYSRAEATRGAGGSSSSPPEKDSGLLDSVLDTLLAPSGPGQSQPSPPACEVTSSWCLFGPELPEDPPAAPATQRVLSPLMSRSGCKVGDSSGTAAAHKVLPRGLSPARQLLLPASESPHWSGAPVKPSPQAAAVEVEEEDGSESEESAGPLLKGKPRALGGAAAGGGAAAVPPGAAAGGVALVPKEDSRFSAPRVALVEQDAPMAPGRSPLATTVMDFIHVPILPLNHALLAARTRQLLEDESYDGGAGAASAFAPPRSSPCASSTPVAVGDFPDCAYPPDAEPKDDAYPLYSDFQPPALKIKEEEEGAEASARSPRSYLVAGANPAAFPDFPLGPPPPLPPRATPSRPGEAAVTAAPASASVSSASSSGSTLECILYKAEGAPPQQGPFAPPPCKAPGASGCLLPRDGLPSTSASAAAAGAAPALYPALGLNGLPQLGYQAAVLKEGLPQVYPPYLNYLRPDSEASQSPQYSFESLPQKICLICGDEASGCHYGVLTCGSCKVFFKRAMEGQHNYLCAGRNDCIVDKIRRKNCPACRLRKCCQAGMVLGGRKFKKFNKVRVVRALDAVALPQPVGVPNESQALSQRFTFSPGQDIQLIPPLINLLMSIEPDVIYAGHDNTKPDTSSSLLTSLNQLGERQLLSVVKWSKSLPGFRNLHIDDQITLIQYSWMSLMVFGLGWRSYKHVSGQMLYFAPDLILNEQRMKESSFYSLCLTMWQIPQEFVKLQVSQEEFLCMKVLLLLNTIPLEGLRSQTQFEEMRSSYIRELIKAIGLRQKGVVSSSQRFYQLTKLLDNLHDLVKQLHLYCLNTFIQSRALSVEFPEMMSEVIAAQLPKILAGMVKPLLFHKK

effect on PR nuclear aggregates [5]: reverse the PR nuclear aggregates
Compound: CN(C)c1ccc([C@H]2C[C@]3(C)[C@@H](CC[C@]3(O)CCCO)C3CCC4=CC(=O)CCC4=C32)cc1 (stereo in doubt) [Onapristone, (8S,11R,13R,14S,17S)-11-[4-(dimethylamino)phenyl]-17-hydroxy-17-(3-hydroxypropyl)-13-methyl-1,2,6,7,8,11,12,14,15,16-decahydrocyclopenta[a]phenanthren-3-one]
effect on estrogen secretion [1]: does not increase estrogen secretion
activation of progesterone responsive genes (number of genes activated) [2]: 3 genes
objective response rate [3]: 56%
response rate [4]: 10%
